“And” between values parts separate entries of the source, which are not always exact repeats. Identical values can stand only once.
How the values were obtained:
Type in all cases: in vivo, human
[1] = test system: patients with nonsense-mutation-mediated cystic fibrosis; assay: Pulmonary function tests (FEV1, FVC), Phase 2 cystic fibrosis study
Method: Pulmonary function tests, including FEV1, FVC, and MEF25-75, are measured using standard spirometry procedures. Assessments of pulmonary function (including MEF25-75, FVC, and, particularly, FEV1) have been acknowledged as definitive clinical endpoints in patients with CF (Food and Drug Administration, 62nd Anti-Infective Drugs Advisory Committee. Discussion of NDA for tobramycin solution for inhalation (Tobi®) for the management of cystic fibrosis patients. November, 1997; Tiddens, 2002, Pediatr. Pulmonol. 34(3): 228-31). […] Pulmonary function testing is simple to administer (even in patients as young as 7 years of age), and uses standardized equipment and techniques that are widely available. Interpretation is performed using well-established normative equations that account for patient age, height, and gender.
3-[5-(2-Fluoro-phenyl)-[1,2,4]oxadiazol-3-yl]-benzoic acid was provided in a formulation described herein.
Clinical endpoints were evaluated using the procedures set forth above. TEPD measurements were made prior to treatment and on days 14 and 28 of Cycle 1 and Cycle 2. Nasal mucosal curettage was collected from each nostril of each patient prior to treatment and on days 14 and 28 of Cycle 1 and Cycle 2. Pulmonary tests, including FEV1, FVC and MEF25-75, were measured prior to treatment, on day −1 of Cycle 2, on day 13 or 14 of Cycle 1 and day 13 or 14 of Cycle 2 in the study being conducted in Israel and the same parameters were measured prior to treatment and on day 13 or 14 of Cycle 2 in the study being conducted in the United States.
Statistically significant results and positive trends for secondary endpoints were also observed. In particular, although the trials were not been powered to detect statistical significant changes in secondary endpoints, statistically significant improvements from study entry to the end of the higher-dose treatment cycle in the patients' mean FEV1, FVC and weight were observed.

dystrophin = assay: Dystrophin expression in EDB muscle biopsy by immunofluorescence, Phase 2 DMD study; settings: for In Vivo Expression Response (dystrophin): individual DMD patients, 28 days
Method: Biopsy of the EDB muscle and overlying skin from one foot is performed under local anesthesia and conscious sedation (in some cases, general anesthesia may be required) prior to treatment, and from the other foot on the last day of treatment. The biopsy procedure is performed using standardized techniques (Stedman, 2000, Human Gene Therapy 11:777-90). The entire muscle belly (whenever possible) is removed in the procedure. At the time of collection of the biopsy prior to treatment, the muscle specimen is divided into at least 3 fragments and the biopsy specimen collected on the last day of treatment is divided into at least 2 fragments. The biopsy specimen is placed on a telfa gauze sponge moistened with Ringer's saline. The biopsy specimen is viewed at low power under a stereo dissection microscope to establish fiber orientation. The muscle is then transected using a sharp scalpel in a cross sectional fashion (perpendicular to the orientation of the fibers) whenever possible and allowed to rest for 2 minutes to allow for the cessation of spasm. The sample is then frozen in liquid nitrogen cooled isopentane, transferred to a liquid nitrogen reservoir and held 1 inch above the liquid/vapor interface for 2 minutes of slow cooling and isopentane evaporation before immersion in the liquid nitrogen, and wrapped into precooled (in liquid nitrogen and stored on dry ice) foil labeled with the study number, site number, patient number, date, patient initials, and foot side (right foot or left foot).
All sample containers are clearly labeled in a fashion that identifies the subject and the collection date. Labels are fixed to the sample containers in a manner that prevents the label from becoming detached. Samples are shipped for analysis/culture/central review immediately after the procedure is performed. For detection of dystrophin, 3 commercially available antibodies that recognize the C-terminus, the N-terminus, and the rod domain of the protein are employed. For detection of the sarcoglycan and dystroglycan complex, commercially available antibodies against α-, β-, γ-, and δ-sarcoglycan, and β-dystroglycan are used when possible. Epifluorescence microscopy is used in the analysis; images are captured by CCD camera, after normalization of the fluorescence intensity against a normal muscle specimen. Images are stored digitally and preserved for future review, and final evaluation at the completion of the study. Tissues are also processed for detection of dystrophin, the sarcoglycans, and β-dystroglycan by Western blotting using the same antibodies. Microscopic images are captured and preserved for future review, and for final evaluation at the completion of the study. Remaining muscle tissue samples are preserved for confirmatory assays of mRNA and proteins involved in DMD. […]

cough = assay: Quantitative cough assessment (LifeShirt), mean cough frequency over 24 hours; settings: FIG. 2; initial improvement, temporary increase, then overall improvement
Method: FIG. 2 provides the effect on mean cough frequency over 24 hours by the administration of 3-[5-(2-fluoro-phenyl)-[1,2,4]oxadiazol-3-yl]-benzoic acid to a subject.
The VivoMetrics, Inc. LifeShirt® incorporates motion-sensing transducers, electrodes, a throat microphone, calibration bag, and a 3-axis accelerometer into a lightweight, washable vest that is available for patients≧5 years of age (see LifeShirt® Monitoring System QuickStart Guide, incorporated by reference herein in its entirety). Using integrated input from the motion sensors and microphone, the frequency and intensity of cough can be measured. […]
The device was used to obtain the data set forth in FIG. 2 and will be used to offer substantial supplementary data regarding the clinical benefits of 3-[5-(2-fluoro-phenyl)-[1,2,4]oxadiazol-3-yl]-benzoic acid during Phase 3 testing in CF. […] Without being limited by theory, based on the hypothesis that 3-[5-(2-fluoro-phenyl)-[1,2,4]oxadiazol-3-yl]-benzoic acid-mediated induction of CFTR function would reduce airway obstruction and inflammation, a decrease in cough frequency could serve as a symptomatic integration of these pharmacological effects and might offer a more accurate and quantitative assessment than verbal patient reporting.

[2] = study entry to end of higher dose treatment

O=C(O)c1cccc(-c2noc(-c3ccccc3F)n2)c1 [3-[5-(2-fluoro-phenyl)-[1,2,4]oxadiazol-3-yl]-benzoic acid]
Mean FEV1 (percentage of normal for gender, age and height), End of Higher Dose Treatment ([1]; end of higher-dose cycle (10, 10, 20 mg/kg TID), study entry 65.8%): 69.1%
Mean FVC (percentage of normal for gender, age and height), End of Higher Dose Treatment ([1]; end of higher-dose cycle (10, 10, 20 mg/kg TID), study entry 80.2%): 85.1%
Mean FEV1 (percentage of normal), Change [1, 2]: 3.3%
Mean FVC (percentage of normal), Change [1, 2]: 4.9%
In Vivo Expression Response (dystrophin) (dystrophin; High Dose: 20, 20, 40 mg/kg): Yes (6×) and No (6×)
In Vivo Expression Response (dystrophin) (dystrophin; Low Dose: 4, 4, 8 mg/kg): Yes (4×) and No (2×)
In Vivo Expression Response (dystrophin) (dystrophin; Middle Dose: 10, 10, 20 mg/kg): Yes (10×) and No (10×)
Extensor digitorum brevis muscle membrane dystrophin on staining for the C-terminal domain (dystrophin; some patients at both dose levels, day 28 relative to baseline): Partial restoration or increase
Mean cough frequency over 24 hours (cough): overall improvement in mean cough frequency

Source: US9226919B2, “Methods for dosing an orally active 1,2,4-oxadiazole” (PTC Therapeutics, Inc., priority 2006, dated 2016)
